Experimental data: article PMC9116245, “New 1,2,3-triazole linked ciprofloxacin-chalcones induce DNA damage by inhibiting human topoisomerase I& II and tubulin polymerization” (Journal of Enzyme Inhibition and Medicinal Chemistry, 2022)

How the values were obtained:
Type in all cases: cell-based
[1] = test system: 786-0; assay: NCI one-dose screen; conditions: Homo sapiens; 786-0, 10 µM; read-out: Growth Percent
Description: (§1) For screening of anticancer properties, all the developed compounds were chosen by the (NCI) for in-vitro antitumor evaluation. The assay was carried out using 59 human cancer cell lines obtained from nine tumour subpanels (breast, ovarian, melanoma, leukaemia, renal, CNS, lung, prostate, and colon cancer cell lines). Compounds were assessed at a 10 µM concentration. […] Also, hybrids 4a, 4b, 4e, 4i and 4j produced significant anti-proliferative effect in several cancer cells, particularly in leukaemia (RPMI-8226) and colon (HCT116) cells with growth percent of 47.87, −14.59, −24.56, −24.42, −15.84, −9.74, −53.36, −10.26, −31.29, and −39.51%, respectively.
(§2) The method description for NCI anticancer screening is provided in detail in the standard NCI-60 testing protocol.

[2] = test system: A549/ATCC; assay: NCI one-dose screen; conditions: Homo sapiens, read-out: Growth Percent
Description: as §1, §2

[3] = test system: ACHN; assay: NCI one-dose screen; conditions: Homo sapiens, read-out: Growth Percent
Description: as §1, §2

[4] = test system: BT-549; assay: NCI one-dose screen; conditions: Homo sapiens; BT-549, 10 µM; read-out: Growth Percent
Description: as §1, §2

[5] = test system: HCC-2998; assay: NCI one-dose screen; conditions: Homo sapiens; HCC-2998, 10 µM; read-out: Growth Percent
Description: as §1, §2

[6] = test system: HCT-15; assay: NCI one-dose screen; conditions: Homo sapiens; HCT-15, 10 µM; read-out: Growth Percent
Description: as §1, §2

[7] = test system: HOP-62; assay: NCI one-dose screen; conditions: Homo sapiens; HOP-62, 10 µM; read-out: Growth Percent
Description: as §1, §2

[8] = test system: HOP-92; assay: NCI one-dose screen; conditions: Homo sapiens; HOP-92, 10 µM; read-out: Growth Percent
Description: as §1, §2

[9] = test system: HS 578T; assay: NCI one-dose screen; conditions: Homo sapiens, read-out: Growth Percent
Description: as §1, §2

[10] = test system: IGROV1; assay: NCI one-dose screen; conditions: Homo sapiens, IGROV-1; IGROV1, 10 µM; read-out: Growth Percent
Description: as §1, §2

[11] = test system: LOX IMVI; assay: NCI one-dose screen; conditions: Homo sapiens, read-out: Growth Percent
Description: as §1, §2

[12] = test system: MALME-3M; assay: NCI one-dose screen; conditions: Homo sapiens, read-out: Growth Percent
Description: as §1, §2

[13] = test system: MCF7; assay: NCI one-dose screen; conditions: Homo sapiens; MCF7, 10 µM; read-out: Growth Percent
Description: as §1, §2

[14] = test system: MDA-MB-435; assay: NCI one-dose screen; conditions: Homo sapiens; MDA-MB-435, 10 µM; read-out: Growth Percent
Description: as §1, §2

[15] = test system: MDA-MB-468; assay: NCI one-dose screen; conditions: Homo sapiens; MDA-MB-468, 10 µM; read-out: Growth Percent
Description: as §1, §2

[16] = test system: NCI-H226; assay: NCI one-dose screen; conditions: Homo sapiens; NCI-H226, 10 µM; read-out: Growth Percent
Description: as §1, §2

[17] = test system: NCI-H522; assay: NCI one-dose screen; conditions: Homo sapiens; NCI-H522, 10 µM; read-out: Growth Percent
Description: as §1, §2

[18] = test system: NCI/ADR-RES; assay: NCI one-dose screen; conditions: Homo sapiens, read-out: Growth Percent
Description: as §1, §2

[19] = test system: OVCAR-3; assay: NCI one-dose screen; conditions: Homo sapiens; OVCAR-3, 10 µM; read-out: Growth Percent
Description: as §1, §2

[20] = test system: OVCAR-5; assay: NCI one-dose screen; conditions: Homo sapiens; OVCAR-5, 10 µM; read-out: Growth Percent
Description: as §1, §2

[21] = test system: OVCAR-8; assay: NCI one-dose screen; conditions: Homo sapiens; OVCAR-8, 10 µM; read-out: Growth Percent
Description: as §1, §2

[22] = test system: PC-3; assay: NCI one-dose screen; conditions: Homo sapiens; PC-3, 10 µM; read-out: Growth Percent
Description: as §1, §2

[23] = test system: RXF 393; assay: NCI one-dose screen; conditions: Homo sapiens; RXF 393, 10 µM; read-out: Growth Percent
Description: as §1, §2

[24] = test system: SF-268; assay: NCI one-dose screen; conditions: Homo sapiens; SF-268, 10 µM; read-out: Growth Percent
Description: as §1, §2

[25] = test system: SK-MEL-28; assay: NCI one-dose screen; conditions: Homo sapiens; SK-MEL-28, 10 µM; read-out: Growth Percent
Description: as §1, §2

[26] = test system: SK-MEL-2; assay: NCI one-dose screen; conditions: Homo sapiens; SK-MEL-2, 10 µM; read-out: Growth Percent
Description: as §1, §2

[27] = test system: SNB-75; assay: NCI one-dose screen; conditions: Homo sapiens; SNB-75, 10 µM; read-out: Growth Percent
Description: as §1, §2

[28] = test system: SR; assay: NCI one-dose screen; conditions: Homo sapiens, read-out: Growth Percent
Description: as §1, §2

[29] = test system: SW-620; assay: NCI one-dose screen; conditions: Homo sapiens; SW-620, 10 µM; read-out: Growth Percent
Description: as §1, §2

[30] = test system: T-47D; assay: NCI one-dose screen; conditions: Homo sapiens, T47D, read-out: Growth Percent
Description: as §1, §2

[31] = test system: U251; assay: NCI one-dose screen; conditions: Homo sapiens, U-251; U251, 10 µM; read-out: Growth Percent
Description: as §1, §2

[32] = test system: UACC-257; assay: NCI one-dose screen; conditions: Homo sapiens; UACC-257, 10 µM; read-out: Growth Percent
Description: as §1, §2

[33] = test system: UACC-62; assay: NCI one-dose screen; conditions: Homo sapiens; UACC-62, 10 µM; read-out: Growth Percent
Description: as §1, §2

[34] = test system: Caco-2; assay: MTT assay; conditions: Homo sapiens; Caco-2, MTT assay, 24 h incubation
Description: (§3) The proliferation of colorectal cancer cells (HCT116, HT29 and Caco-2) was assessed using MTT assay as previously reported. Cells were treated with increasing concentrations of 1, 5, 10, 20, 40, 80 or 100 µM of CP hybrids 4a-j, doxorubicin, or DMSO. See Supplementary Appendix A.

[35] = test system: HCT116; assay: MTT assay; conditions: Homo sapiens, HCT-116, 24 h incubation
Description: as §3

[36] = test system: HT-29; assay: MTT assay; conditions: Homo sapiens; HT-29, MTT assay, 24 h incubation
Description: as §3

Structure (SMILES)	activity at 10 µM [1] [%]	activity at 10 µM [2] [%]	activity at 10 µM [3] [%]	activity at 10 µM [4] [%]	activity at 10 µM [5] [%]	activity at 10 µM [6] [%]	activity at 10 µM [7] [%]	activity at 10 µM [8] [%]	activity at 10 µM [9] [%]	activity at 10 µM [10] [%]	activity at 10 µM [11] [%]	activity at 10 µM [12] [%]	activity at 10 µM [13] [%]	activity at 10 µM [14] [%]	activity at 10 µM [15] [%]	activity at 10 µM [16] [%]	activity at 10 µM [17] [%]	activity at 10 µM [18] [%]	activity at 10 µM [19] [%]	activity at 10 µM [20] [%]	other results
O=C(/C=C/c1ccc(Br)cc1)c1ccc(-n2cc(CN3CCN(c4cc5c(cc4F)c(=O)c(C(=O)O)cn5C4CC4)CC3)nn2)cc1 [Compound 4d, (E)-7-(4-((1-(4-(3-(4-bromophenyl)acryloyl)phenyl)-1H-1,2,3-triazol-4-yl)methyl)piperazin-1-yl)-1-cyclopropyl-6-fluoro-4-oxo-1,4-dihydroquinoline-3-carboxylic acid]	72.2	90.5	93.4	92.5	83.3	90.6	85.4	88	71.2	79.4	55.7	87.7	61.4	81.9	72.5	74.8	88	85.6	84.9	92.7	activity at 10 µM [21]: 80.7%; activity at 10 µM [22]: 84.7%; activity at 10 µM [23]: 55.7%; activity at 10 µM [24]: 77.2%; activity at 10 µM [25]: 92%; activity at 10 µM [26]: 102%; activity at 10 µM [27]: 85.7%; activity at 10 µM [28]: 21.3%; activity at 10 µM [29]: 85.9%; activity at 10 µM [30]: 101%; activity at 10 µM [31]: 68.4%; activity at 10 µM [32]: 90.1%; activity at 10 µM [33]: 72.8%; IC50 [34]: 7.19 ± 1.69 µM; IC50 [35]: 8.67 ± 2.15 µM; IC50 [36]: 62.5 ± 7.1 µM
O=C(/C=C/c1ccc(F)cc1)c1ccc(-n2cc(CN3CCN(c4cc5c(cc4F)c(=O)c(C(=O)O)cn5C4CC4)CC3)nn2)cc1 [Compound 4e, (E)-1-cyclopropyl-6-fluoro-7–(4-((1–(4-(3-(4-fluorophenyl)acryloyl)phenyl)-1H-1,2,3-triazol-4-yl)methyl)piperazin-1-yl)-4-oxo-1,4-dihydroquinoline-3-carboxylic acid]	33.2	82.2	88.5	32	79.3	63.4	67.3	50.3	57.5	39.6	20.3	89.2	24.2	64.7	32.9	81.7	48.5	92.1	46.6	84.2	activity at 10 µM [21]: 23.3%; activity at 10 µM [22]: 57.4%; activity at 10 µM [23]: 45%; activity at 10 µM [24]: 35.7%; activity at 10 µM [25]: 68%; activity at 10 µM [26]: 89%; activity at 10 µM [27]: 68.1%; activity at 10 µM [28]: 7.11%; activity at 10 µM [29]: 43.2%; activity at 10 µM [30]: 76.8%; activity at 10 µM [31]: 16.6%; activity at 10 µM [32]: 88.3%; activity at 10 µM [33]: 55.8%; IC50 [34]: 4.19 ± 1.13 µM; IC50 [35]: 4.32 ± 0.98 µM; IC50 [36]: 8.67 ± 2.94 µM
Cc1ccc(/C=C/C(=O)c2ccc(-n3cc(CN4CCN(c5cc6c(cc5F)c(=O)c(C(=O)O)cn6C5CC5)CC4)nn3)cc2)cc1 [Compound 4f, (E)-1-cyclopropyl-6-fluoro-4-oxo-7-(4-((1-(4-(3-(p-tolyl)acryloyl)phenyl)-1H-1,2,3-triazol-4-yl)methyl)piperazin-1-yl)-1,4-dihydroquinoline-3-carboxylic acid]	76.7	87.3	93.7	81.3	98.5	95	87.4	84.6	83.6	74.2	50.4	102	64.8	86.6	92.2	84.5	78.3	102	95.9	99.5	activity at 10 µM [21]: 79%; activity at 10 µM [22]: 82%; activity at 10 µM [23]: 88.4%; activity at 10 µM [24]: 72.6%; activity at 10 µM [25]: 107%; activity at 10 µM [26]: 97.2%; activity at 10 µM [27]: 93.6%; activity at 10 µM [28]: 16.6%; activity at 10 µM [29]: 95.5%; activity at 10 µM [30]: 80%; activity at 10 µM [31]: 71.2%; activity at 10 µM [32]: 95.8%; activity at 10 µM [33]: 83%; IC50 [34]: 10.1 ± 2.82 µM; IC50 [35]: 7.22 ± 1.45 µM; IC50 [36]: 14.7 ± 1.81 µM
COc1ccc(/C=C/C(=O)c2ccc(-n3cc(CN4CCN(c5cc6c(cc5F)c(=O)c(C(=O)O)cn6C5CC5)CC4)nn3)cc2)cc1 [Compound 4g, (E)-1-Cyclopropyl-6-fluoro-7-(4-((1-(4-(3-(4-methoxyphenyl)acryloyl)phenyl)-1H-1,2,3-triazol-4-yl)methyl)piperazin-1-yl)-4-oxo-1,4-dihydroquinoline-3-carboxylic acid]	78.1	89	89.9	90	90.7	95.8	85.5	84.8	65.3	59	56.9	84.8	51.2	82.2	74.4	76.3	79.1	94.8	90.5	100	activity at 10 µM [21]: 83.6%; activity at 10 µM [22]: 89%; activity at 10 µM [23]: 75%; activity at 10 µM [24]: 77.3%; activity at 10 µM [25]: 85.3%; activity at 10 µM [26]: 99.1%; activity at 10 µM [27]: 91.6%; activity at 10 µM [28]: 13.1%; activity at 10 µM [29]: 81.7%; activity at 10 µM [30]: 93.4%; activity at 10 µM [31]: 68.6%; activity at 10 µM [32]: 91.7%; activity at 10 µM [33]: 74.6%; IC50 [34]: 11.4 ± 3.19 µM; IC50 [35]: 6.11 ± 1.03 µM; IC50 [36]: 34 ± 3.69 µM
